According to paper PMC5515969, “Effects of 31 FDA approved small-molecule kinase inhibitors on isolated rat liver mitochondria” (Archives of Toxicology, 2016):
Like-named read-outs stand apart in the source and are kept apart here.

Experiments:
[1] = test system: isolated rat liver mitochondria; assay: Mitochondrial swelling (absorbance at 535 nm); type: biochemical; conditions: difference in signal between KI and DMSO treated samples at the end of experiments; for Swelling 5XCmax: key: 0 indicates that the drug had no effects (negative)
RCC V = RCC V activity in submitochondrial particles; type: biochemical, rat; for RCC V at 5XCmax: key: 0 indicates that the drug had no effects (negative)
Procedure, shortened: (§1)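 Absorbance kinetics: A340 (RCC I, V) and A600 (RCC II) read each minute over 6 min, A550 (RCC III, IV) every 10 s over 2 min; RCC I taken as […]. Particles (1 mg/ml) pretreated 15 min with compound; DMSO-treated activity = 1.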

RCC I = RCC I activity in submitochondrial particles; type: biochemical, rat; design: key to RCC I at 10XCmax / RCC I at 100XCmax / RCC I at 50XCmax / RCC I at 30XCmax / RCC I at 20XCmax: activity relative to DMSO-treated controls (control set as 1 = 100%); conditions: 10XCmax
Procedure, shortened: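 Kinase inhibitors were preincubated 15 min with submitochondrial particles (1 mg/ml) before complex activities were measured. RCC I was the rotenone-sensitive portion (activity without minus with rotenone). RCC I/V was read at 340 nm and RCC II at 600 nm every 1 min for 6 min. RCC III and IV were read at 550 nm every 10 s for 2 min. Activities are normalized to DMSO controls set as 1.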

[2] = test system: isolated rat liver mitochondria; assay: Mitochondrial inner membrane potential (MMP), Rhodamine 123; type: biochemical; conditions: difference in signal between KI and DMSO treated samples at the end of experiments
Source text: Fig. 3 KI effects on mitochondrial inner membrane potential (MMP). […] In a, c, data are means and standard derivations from three separate experiments. *p < 0.05 as compared to DMSO-treated samples at the end of experiments. In b, data are means of two independent experiments

RCC IV = RCC IV activity in submitochondrial particles; type: biochemical, rat; design: key to RCC IV at 50XCmax / RCC IV at 100XCmax: activity relative to DMSO-treated controls (control set as 1 = 100%); conditions: 50XCmax, in %
Procedure, shortened: as §1

[3] = cited from earlier work; for Labeling for DILI: BBW: black box warning, W&P: Warnings and Precautions
[4] = test system: isolated rat liver mitochondria; conditions: positive control alamethicin treated samples
RCC II = target: T1, RCC II (Rattus norvegicus, UniProt P21913+Q641Z9+Q6PCT8+Q920L2); assay: RCC II activity in submitochondrial particles; type: biochemical; design: key: activity relative to DMSO-treated controls (control set as 1 = 100%)
T1 construct: Submitochondrial particles were prepared by subjecting the intact mitochondria to three successive freeze–thaw cycles; from tissue; host or cells: rat liver mitochondria, used as submitochondrial particles
T1 sequence (Q920L2 35-656): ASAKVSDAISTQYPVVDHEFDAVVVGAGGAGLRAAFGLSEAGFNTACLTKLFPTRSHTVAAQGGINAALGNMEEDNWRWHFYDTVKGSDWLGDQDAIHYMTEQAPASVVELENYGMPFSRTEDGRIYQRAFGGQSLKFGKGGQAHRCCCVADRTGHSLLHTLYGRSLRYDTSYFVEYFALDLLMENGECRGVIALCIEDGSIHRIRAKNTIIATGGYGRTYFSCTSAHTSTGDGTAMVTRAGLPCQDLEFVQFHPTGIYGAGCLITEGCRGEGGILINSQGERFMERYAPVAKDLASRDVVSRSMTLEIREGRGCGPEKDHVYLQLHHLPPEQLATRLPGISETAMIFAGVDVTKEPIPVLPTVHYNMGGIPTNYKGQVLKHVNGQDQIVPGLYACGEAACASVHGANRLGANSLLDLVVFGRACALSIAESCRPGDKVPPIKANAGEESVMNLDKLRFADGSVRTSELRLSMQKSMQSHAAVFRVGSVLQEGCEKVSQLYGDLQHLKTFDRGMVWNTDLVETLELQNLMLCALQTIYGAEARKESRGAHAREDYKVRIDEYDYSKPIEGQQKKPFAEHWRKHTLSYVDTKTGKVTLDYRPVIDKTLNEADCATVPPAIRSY
T1 sequence (P21913 31-282): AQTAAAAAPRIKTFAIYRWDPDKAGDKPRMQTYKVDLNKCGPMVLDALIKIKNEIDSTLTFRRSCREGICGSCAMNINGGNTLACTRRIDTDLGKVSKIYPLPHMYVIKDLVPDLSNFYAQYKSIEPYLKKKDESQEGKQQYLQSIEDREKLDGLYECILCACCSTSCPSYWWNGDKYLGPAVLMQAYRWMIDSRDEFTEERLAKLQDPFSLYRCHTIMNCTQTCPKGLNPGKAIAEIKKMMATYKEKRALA
T1 sequence (Q641Z9 1-169): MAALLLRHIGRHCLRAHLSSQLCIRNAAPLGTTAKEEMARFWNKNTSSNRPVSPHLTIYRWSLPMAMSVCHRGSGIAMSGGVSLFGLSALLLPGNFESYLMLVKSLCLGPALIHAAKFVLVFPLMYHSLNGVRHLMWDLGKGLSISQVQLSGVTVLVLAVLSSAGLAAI
T1 sequence (Q6PCT8 57-159): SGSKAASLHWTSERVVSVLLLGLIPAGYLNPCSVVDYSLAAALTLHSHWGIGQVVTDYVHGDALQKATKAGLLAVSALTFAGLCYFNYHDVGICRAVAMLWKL
Procedure, shortened: as §1

[5] = test system: isolated rat liver mitochondria; assay: Mitochondrial oxygen consumption (glutamate/malate or succinate driven, state 4 and state 3); type: biochemical; conditions: DMSO treated samples set as 1; for State 3 respiration driven by succinate at 10XCmax: key: 0 indicates that the drug had no effects (negative); for State 3 respiration driven by succinate at 1XCmax: key: 0 indicates that the drug had no effects (negative)
Procedure, shortened: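 Oxygen uptake on glutamate/malate or on succinate defined state 4; ADP added 3 min later gave state 3. Mitochondria isolated from rat liver by differential centrifugation, adjusted to 1 mg/ml and pretreated 5 min with inhibitor (0.1% DMSO final). Values relative to DMSO control, set to 1.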

[6] = cited from earlier work
[7] = relative to DMSO treated samples

CCCS(=O)(=O)Nc1ccc(F)c(C(=O)c2c[nH]c3ncc(-c4ccc(Cl)cc4)cc23)c1F [Vemurafenib]
Swelling 1XCmax [1]: 0
Swelling 2.5XCmax [1]: 0
Swelling 5XCmax [1]: 0
Swelling 10XCmax [1]: 0
Swelling 20XCmax [1]: 0
Swelling 30XCmax [1]: 0
Swelling 50XCmax [1]: 0
Swelling 100XCmax [1]: 0
RCC V at 5XCmax (RCC V; [7]): 0
RCC I at 10XCmax (RCC I; [7]): 0
MMP measured by Rhodamine 123 at 1XCmax [2]: 0
MMP measured by Rhodamine 123 at 2.5XCmax [2]: 0
MMP measured by Rhodamine 123 at 5XCmax [2]: 0
MMP measured by Rhodamine 123 at 10XCmax [2]: 0
MMP measured by Rhodamine 123 at 20XCmax [2]: 0
MMP measured by Rhodamine 123 at 30XCmax [2]: 0
MMP measured by Rhodamine 123 at 50XCmax [2]: 0
MMP measured by Rhodamine 123 at 100XCmax [2]: 0
RCC IV at 50XCmax (RCC IV; [7]): 0
DILI potential (based on labeling) ([3]; 1 = DILI positive, 0 = negative, ref product labeling): 1
Labeling for DILI ([3]; ref product labeling): W&P: functional hepatic impairment
labeling for DILI ([3]; W&P warnings and precautions, BBW black box warnings, ref FDA product labeling): W&P: hepatic impairment/ALT monitoring
DILI potential (based on labeling) ([3]; ref FDA product labeling): 1
Cytochrome c release 1XCmax [4]: 0
Cytochrome c release 2.5XCmax [4]: 0
Cytochrome c release 5XCmax [4]: 0
Cytochrome c release 10XCmax [4]: 0
Cytochrome c release 20XCmax [4]: 0
Cytochrome c release 30XCmax [4]: 0
Cytochrome c release 50XCmax [4]: 0
Cytochrome c release 100XCmax [4]: 0
RCC II at 1.0XCmax (RCC II; [7]): 0
RCC II at 2.5XCmax (RCC II; [7]): 0
RCC II at 5XCmax (RCC II; [7]): 0
RCC II at 10XCmax (RCC II; [7]): 0
RCC II at 20XCmax (RCC II; [7]): 0
RCC II at 30XCmax (RCC II; [7]): 0
RCC II at 50XCmax (RCC II; [7]): 0
RCC II at 100XCmax (RCC II; [7]): 0
State 3 respiration driven by glutamate/malate at 1XCmax [5]: 0
State 3 respiration driven by succinate at 1XCmax [5]: 0
State 4 respiration driven by glutamate/malate at 1XCmax [5]: 0
State 4 respiration driven by succinate at 1XCmax [5]: 0
State 3 respiration driven by glutamate/malate at 2.5XCmax [5]: 0
State 3 respiration driven by succinate at 2.5XCmax [5]: 0
State 4 respiration driven by glutamate/malate at 2.5XCmax [5]: 0
State 4 respiration driven by succinate at 2.5XCmax [5]: 0
State 3 respiration driven by glutamate/malate at 5XCmax [5]: 0
State 3 respiration driven by succinate at 5XCmax [5]: 0
State 4 respiration driven by glutamate/malate at 5XCmax [5]: 0
State 4 respiration driven by succinate at 5XCmax [5]: 0
State 3 respiration driven by glutamate/malate at 10XCmax [5]: 0
State 3 respiration driven by succinate at 10XCmax [5]: 0
State 4 respiration driven by glutamate/malate at 10XCmax [5]: 0
State 4 respiration driven by succinate at 10XCmax [5]: 0
State 3 respiration driven by glutamate/malate at 20XCmax [5]: 0
State 3 respiration driven by succinate at 20XCmax [5]: 0
State 4 respiration driven by glutamate/malate at 20XCmax [5]: 0
State 4 respiration driven by succinate at 20XCmax [5]: 0
State 3 respiration driven by glutamate/malate at 30XCmax [5]: 0
State 3 respiration driven by succinate at 30XCmax [5]: 0
State 4 respiration driven by glutamate/malate at 30XCmax [5]: 0
State 4 respiration driven by succinate at 30XCmax [5]: 0
State 3 respiration driven by glutamate/malate at 50XCmax [5]: 0
State 3 respiration driven by succinate at 50XCmax [5]: 0
State 4 respiration driven by glutamate/malate at 50XCmax [5]: 0
State 4 respiration driven by succinate at 50XCmax [5]: 0
State 3 respiration driven by glutamate/malate at 100XCmax [5]: 0
State 3 respiration driven by succinate at 100XCmax [5]: 0
State 4 respiration driven by glutamate/malate at 100XCmax [5]: 0
State 4 respiration driven by succinate at 100XCmax [5]: 0
Cmax ([6]; human therapeutic Cmax at FDA recommended dosages, ref product labeling and drug approval packages at the official FDA website): 0.13 µM

CN(C)C/C=C/C(=O)Nc1cc2c(Nc3ccc(F)c(Cl)c3)ncnc2cc1O[C@H]1CCOC1 [afatinib dimaleate]
Swelling 1XCmax [1]: 0
Swelling 2.5XCmax [1]: 0
Swelling 5XCmax [1]: 0
Swelling 10XCmax [1]: 0
Swelling 20XCmax [1]: 0
Swelling 30XCmax [1]: 0
Swelling 50XCmax [1]: 0
Swelling 100XCmax [1]: 0
RCC V at 5XCmax (RCC V; DMSO treated samples set as 1): 0
RCC V at 50XCmax (RCC V; 50XCmax, DMSO treated samples set as 1): 0
RCC I at 10XCmax (RCC I; DMSO treated samples set as 1): 0
MMP measured by Rhodamine 123 at 1XCmax [2]: 0
MMP measured by Rhodamine 123 at 2.5XCmax [2]: 0
MMP measured by Rhodamine 123 at 5XCmax [2]: 0
MMP measured by Rhodamine 123 at 10XCmax [2]: 0
MMP measured by Rhodamine 123 at 20XCmax [2]: 0
MMP measured by Rhodamine 123 at 30XCmax [2]: 0
MMP measured by Rhodamine 123 at 50XCmax [2]: 0
MMP measured by Rhodamine 123 at 100XCmax [2]: 0
RCC IV at 50XCmax (RCC IV; DMSO treated samples set as 1): 0
DILI potential (based on labeling) ([3]; 1 DILI positive, 0 negative according to labeling, ref product labeling): 1
Labeling for DILI ([3]; ref product labeling): W&P: ALT↑
Cytochrome c release 1XCmax [4]: 0
Cytochrome c release 2.5XCmax [4]: 0
Cytochrome c release 5XCmax [4]: 0
Cytochrome c release 10XCmax [4]: 0
Cytochrome c release 20XCmax [4]: 0
Cytochrome c release 30XCmax [4]: 0
Cytochrome c release 50XCmax [4]: 0
Cytochrome c release 100XCmax [4]: 0
RCC II at 1.0XCmax (RCC II; DMSO treated samples set as 1): 0
RCC II at 2.5XCmax (RCC II; DMSO treated samples set as 1): 0
RCC II at 5XCmax (RCC II; DMSO treated samples set as 1): 0
RCC II at 10XCmax (RCC II; DMSO treated samples set as 1): 0
RCC II at 20XCmax (RCC II; DMSO treated samples set as 1): 0
RCC II at 30XCmax (RCC II; DMSO treated samples set as 1): 0
RCC II at 50XCmax (RCC II; DMSO treated samples set as 1): 0
RCC II at 100XCmax (RCC II; DMSO treated samples set as 1): 0
State 3 respiration driven by glutamate/malate at 1XCmax [5]: 0
State 3 respiration driven by succinate at 1XCmax [5]: 0
State 4 respiration driven by glutamate/malate at 1XCmax [5]: 0
State 4 respiration driven by succinate at 1XCmax [5]: 0
State 3 respiration driven by glutamate/malate at 2.5XCmax [5]: 0
State 3 respiration driven by succinate at 2.5XCmax [5]: 0
State 4 respiration driven by glutamate/malate at 2.5XCmax [5]: 0
State 4 respiration driven by succinate at 2.5XCmax [5]: 0
State 3 respiration driven by glutamate/malate at 5XCmax [5]: 0
State 3 respiration driven by succinate at 5XCmax [5]: 0
State 4 respiration driven by glutamate/malate at 5XCmax [5]: 0
State 4 respiration driven by succinate at 5XCmax [5]: 0
State 3 respiration driven by glutamate/malate at 10XCmax [5]: 0
State 3 respiration driven by succinate at 10XCmax [5]: 0
State 4 respiration driven by glutamate/malate at 10XCmax [5]: 0
State 4 respiration driven by succinate at 10XCmax [5]: 0
State 3 respiration driven by glutamate/malate at 20XCmax [5]: 0
State 3 respiration driven by succinate at 20XCmax [5]: 0
State 4 respiration driven by glutamate/malate at 20XCmax [5]: 0
State 4 respiration driven by succinate at 20XCmax [5]: 0
State 3 respiration driven by glutamate/malate at 30XCmax [5]: 0
State 3 respiration driven by succinate at 30XCmax [5]: 0
State 4 respiration driven by glutamate/malate at 30XCmax [5]: 0
State 4 respiration driven by succinate at 30XCmax [5]: 0
State 3 respiration driven by glutamate/malate at 50XCmax [5]: 0
State 3 respiration driven by succinate at 50XCmax [5]: 0
State 4 respiration driven by glutamate/malate at 50XCmax [5]: 0
State 4 respiration driven by succinate at 50XCmax [5]: 0
State 3 respiration driven by glutamate/malate at 100XCmax [5]: 0
State 3 respiration driven by succinate at 100XCmax [5]: 0
State 4 respiration driven by glutamate/malate at 100XCmax [5]: 0
State 4 respiration driven by succinate at 100XCmax [5]: 0
Cmax (ng or µg/ml) ([6]; human therapeutic maximal blood concentration, ref product labeling): 0.0252 µg/mL
Cmax ([6]; read-out: Cmax at µM, human therapeutic maximal blood concentration, ref product labeling): 0.04 µM
